Reference: patent publication US5137905A, “Heterocyclic acetylenic amines having central nervous system activity” (The Upjohn Company, priority 1991, dated 1992)
pKi: −log10 of the molar value. Like-named read-outs stand apart in the source and are kept apart here.

Key:
HCl-induced writhing = experiment: HCl writhing protection (analgesic activity); type: in vivo, CF1 mice; conditions: Mus musculus, sc, read-out: CNS Id (ED50 mg/kg) HCl Writh. Protect
Method: For determination of analgesic activity, the test compound was injected subcutaneously into a group of four CF1 mice. Thirty minutes later the mice were injected i.p. with 0.15% HCl, 10 ml./kg. Mice were then placed in plastic boxes and observed for fifteen minutes to record the number of animals failing to writhe.

CNS cholinergic receptor [1] = experiment: CNS cholinergic receptor binding, oxotremorine M ligand; conditions: tritiated oxotremorine M; read-out: CNS Cholinergic Receptor Binding Assays K1 Oxotremorine
CNS cholinergic receptor [2] = conditions: tritiated quinuclidine benzylate (QNB); read-out: CNS Cholinergic Receptor Binding Assays K1 QNB
[3] = tested on: amnesia produced by scopolamine; experiment: Antagonism of scopolamine-induced amnesia, passive avoidance; type: in vivo; conditions: i.p. test compound, 1 mg/kg s.c. scopolamine hydrobromide, mouse step through passive avoidance
Description: For antagonism of amnesia produced by scopolamine a one trial, step through passive avoidance paradigm was used. In this procedure a mouse was placed on a square platform adjoining a darkened chamber. The mouse could enter the chamber through a hole above the platform. Following placement on the platform, the mouse was enclosed by a clear plexiglas cover which mildly restricted movement, limiting the animal to turning around and partial rearing. A sliding door was opened after this, exposing the entrance to the chamber. A timer was started at the same time the door was opened, in order to record latency to enter the chamber. Upon complete entry into the darkened box, the door was closed behind the mouse and a 1 mA, 2 sec, direct current shock applied to the feet of the mouse through the grid floor. The mouse was immediately removed from the chamber and returned to a 24 hr group holding cage.
Drug testing involved intraperitoneal injection of the test compound followed 15 min later by subcutaneous injection of 1 mg/kg scopolamine hydrobromide. […] The latency for each mouse to enter the chamber was recorded, with a cut-off at 180 sec.
Median group latencies to enter the chamber during both training and testing were recorded and a Wilcoxon rank sum test applied to data comparing the parallel "scopolamine only" group with all drug combination groups on testing. […]

[4] = tested on: oxotremorine-induced body tremor; experiment: Oxotremorine antagonist assay (body tremor); type: in vivo, mice; conditions: Mus musculus, ip; read-out: Oxot. Antagonist Tremor (ED50)
Method: Oxotremorine antagonist assays were performed on groups of six mice weighing 18-22 g. Each was dosed intraperitoneally with the test compound prepared in 0.25% methylcellulose and were placed in individual cages. Twenty minutes later the mice were injected subcutaneously with 0.5 mg/kg of oxotremorine dissolved in saline. Ten minutes later the mice were scored for body tremor. Doses of the compound under study began at 100 mg/kg and were decreased at a 0.5 log interval until no responders were obtained.

cholinergic mechanism = conditions: extremely low doses; cited from earlier work
[5] = versus prior oxotremorine compounds; U.S. Pat. No. 3,925,411; cited from earlier work
[6] = ED50, s.c. in CF1 mice, 30 min before i.p. 0.15% HCl

Compound | ED50 (HCl-induced writhing; [6]) | pKi (CNS cholinergic receptor [1]) | pKi (CNS cholinergic receptor [2]) | antagonism of amnesia produced by scopolamine [3] | ED50 [4] | tremors and spasticity in laboratory animals (cholinergic mechanism) | ED50 (HCl-induced writhing) | half life [5]
Cn1ccn(CC#CCN2CCCC2)c1=O [Compound 36, 1,3-Dihydro-1-methyl-3-[4-(1-pyrrolidinyl)-2-butynyl]-2H-imidazol-2-one] | 1.3 mg/kg | 8.15 | 6.29 | the most active | > 10 mg/kg |  |  | 
CN(C)C(=O)N1CCC[C@H]1C#CCN1CCCC1 [Compound 51F, (S)-N,N-Dimethyl 2-[3-(1-pyrrolidinyl)-1-propynyl]-1-pyrrolidinecarboxamide] | > 50 mg/kg | 6.34 | 5.70 |  | > 100 mg/kg |  |  | 
C#CCN1CCN(CC#CCN2CCCC2)C1=O [Compound 14, 1-(2-Propynyl)-3-[4-(1-pyrrolidinyl)-2-butynyl]-2-imidazolidinone] | > 25 mg/kg | 6.70 | 5.64 |  | > 30 mg/kg |  |  | 
CCOC(=O)N1CCC[C@@H]1C#CCN1CCCC1 [Compound 51L, (R)-Ethyl 2-[3-(1-pyrrolidinyl)-1-propynyl]-1-pyrrolidinecarboxylate] | > 50 mg/kg | 7.30 | 6.12 |  | > 100 mg/kg |  |  | 
CC1CN(C(=O)OC(C)(C)C)C(=O)N1CC#CCN1CCCC1 (stereo not drawn) [Compound 18, t-Butyl 4-methyl-2-oxo-3-[4-(1-pyrrolidinyl)-2-butynyl]-1-imidazolidinecarboxylate] | 25 mg/kg | 6.74 | 6.09 |  | > 30 mg/kg |  |  | 
CN(C)CC#C[C@@H]1CCCN1 [Compound 50D, (S)-N,N-dimethyl-3-(2-pyrrolidinyl)-2-propyn-1-amine] | > 50 mg/kg | < 5.00 | < 5.00 |  | > 100 mg/kg |  |  | 
O=C1CCCN1CC#CCN1CCCC1 [oxotremorine, 1-[4-(1-pyrrolidinyl-2-butynyl)-2-pyrrolidinone]] |  |  |  |  |  | induces tremors and spasticity in laboratory animals |  | 
CC1(C)CNC(=O)N1CC#CCN1CCCC1 [Compound 16, 5,5-Dimethyl-1-[4-(1-pyrrolidinyl)-2-butynyl]-2-imidazolidinone] | 25 mg/kg | 6.54 | 6.00 |  | > 100 mg/kg |  |  | 
CN(C)CC#CCN1CCN(C(=O)OC(C)(C)C)C1=O [Compound 11, t-Butyl 3-[4-(dimethylamino)-2-butynyl]-2-oxo-1-imidazolidinecarboxylate] | > 50 mg/kg | 6.80 | 5.33 |  | > 100 mg/kg |  |  | 
CC1CN(C)C(=O)N1CC#CCN1CCCC1 (stereo not drawn) [Compound 19, 1,4Dimethyl-3-[4-(1-pyrrolidinyl)-2-butynyl]-2-imidazolidinone] | > 13 mg/kg | 8.40 | 7.70 |  | 6.6 mg/kg |  |  | 
CN(C)CC#C[C@H]1CCCN1C(=O)OC(C)(C)C [Compound 49C, (R)-t-Butyl 2-[3-(dimethylamino)-1-propynyl]-1-pyrrolidinecarboxylate] | > 50 mg/kg | 7.36 | < 5.00 |  | > 100 mg/kg |  |  | 
CN(C)CC#C[C@H]1CCCN1 [Compound 50C, (R)-N,N-dimethyl-3-(2-pyrrolidinyl)-2-propyn-1-amine] |  | 6.01 | < 6.00 |  | > 100 mg/kg |  | > 50 mg/kg | 
O=C1CCCN1CCC#CCN1CCCC1 [N-(5-pyrrolidino-3-pentynyl)-pyrrolidin-2-one] |  |  |  |  |  |  |  | increased half life over prior oxotremorine compounds
O=C1NCCN1CC#CCN1CCCC1 [Compound 9, 1-[4-(1-Pyrrolidinyl)-2-butynyl]-2-imidazolidinone] | 2.2 mg/kg | 7.89 | 6.10 |  | > 3 mg/kg |  |  | 
CC1CN(CC#CCN2CCCC2)C(=O)N1C(=O)OC(C)(C)C (stereo not drawn) [Compound 17, t-Butyl 5-methyl-2-oxo-3-[4-(1-pyrrolidinyl)-2-butynyl]-1-imidazolidinecarboxylate] | > 25 mg/kg | 6.09 | 5.57 |  | > 100 mg/kg |  |  | 
CN(C)CC#CCN1CCN(c2ccccc2)C1=O [Compound 21, 1-[4-(Dimethylamino)-2-butynyl]-3-phenyl-2-imidazolidinone] | > 50 mg/kg | 6.08 | < 5.00 |  | > 100 mg/kg |  |  | 
CC(C)(C)OC(=O)N1CCC[C@H]1C#CCN1CCCC1 [Compound 49B, (S)-t-Butyl 2-[3-(1-pyrrolidinyl)-1-propynyl]-1-pyrrolidinecarboxylate] | > 50 mg/kg | 5.46 | < 5.00 |  | > 100 mg/kg |  |  | 
CC(C)(C)OC(=O)N1CCN(CC#CCN2CCCC2)C1=O [Compound 8, t-Butyl 2-oxo-3-[4-(1-pyrrolidinyl)-2-butynyl]-1-imidazolidinecarboxylate] | 25 mg/kg | 6.89 | 5.66 |  | > 100 mg/kg |  |  | 
CC(C)(C)OC(=O)N1CCC[C@@H]1C#CCN1CCCC1 [Compound 49A, (R)-t-Butyl 2-[3-(1-pyrrolidinyl)-1-propynyl]-1-pyrrolidine-carboxylate] | 13 mg/kg | 7.70 | 6.37 |  | 100 mg/kg |  |  | 
COC(=O)N1CCC[C@H]1C#CCN1CCCC1 [Compound 51K, (S)-Methyl 2-[3-(1-pyrrolidinyl)-1-propynyl]-1-pyrrolidinecarboxylate] | > 50 mg/kg | 6.89 | 6.66 |  | 97 mg/kg |  |  | 
NC(=O)N1CCC[C@@H]1C#CCN1CCCC1 [Compound 51H, (R)-2-[3-(1-pyrrolidinyl)-1-propynyl]-1-pyrrolidinecarboxamide] | > 50 mg/kg | 6.36 | < 5.00 |  | > 100 mg/kg |  |  | 
CC1CN(CC#CCN2CCCC2)C(=O)N1 (stereo not drawn) [Compound 15, 4-Methyl-1-[4-(1-pyrrolidinyl)-2-butynyl]-2-imidazolidinone] | > 13 mg/kg | 6.85 | 6.00 |  | > 10 mg/kg |  |  | 
O=C1N(CC#CCN2CCCC2)CCN1c1ccccc1 [Compound 20, 1-Phenyl-3-[4-(1-pyrrolidinyl)-2-butynyl]-2-imidazolidinone] | > 25 mg/kg | 7.16 | 6.77 |  | > 30 mg/kg |  |  | 
